Source: patent publication US20200325156A1, “HETEROARYL AMIDE COMPOUNDS, PREPARATION METHOD THEREFOR, PHARMACEUTICAL COMPOSITIONS THEREOF, AND APPLICATIONS THEREOF” (Rui Jin Hospital Affiliated to Shanghai Jiao Tong …, priority 2017, published 2020)

Legend:
Type in all cases: cell-based
[1] = test system: human breast cancer cells MCF-7; test: MTS cell growth inhibition, MCF-7; conditions: MCF7, compound concentration 10 μM, 48 h, read-out: Inhibition rate against MCF-7 at 10 μM (%)
Procedure: (§1) 1) Medium: DMEM (Dulbecco's modified eagle medium) or RPMI1640 (containing 10% fetal bovine serum, 100 μg/mL ampicillin, 100 μg/mL streptomycin).
(§2) 2) Reagent: MTS reaction solution (containing 2 mg/mL of MTS (3-(4,5-dimethylthiazol-2-yl)-5-(3-carboxymethoxyphenyl)-2-(4-sulfophenyl)-2H-tetrazolium, inner salt); 100 μg/mL PES ([…])).
(§3) Human promyelocytic leukemia cells HL-60 (2×10^4 cells/well) cultured in vitro were incubated into a 96-well culture plate, the volume of cell-culture medium was 90 μL, and then 10 μL of the compound at each gradient concentration was added (the highest concentration was 10 μM, which was diluted stepwise by ⅓, and 8 concentration points were set in total; the system contained 0.1% DMSO (dimethyl sulfoxide)). The cell plate with uniformly mixed compound was cultured in a cell culture incubator (37° C.; 5% CO2) for 48 h, then 20 μμL of MTS reaction solution was added, uniformly mixed and incubated in the cell culture incubator (37° C.; 5% CO2) for 1-4 hr; OD values at 490 nm were measured by a microplate reader (VARIOSKAN FLASH, Thermo). Three parallels were set in each group of experiments, with 0.1% (a final concentration) DMSO as a negative control, and a medium without cells and compounds as a blank control. The cell growth inhibition rate was calculated by the following formula:
(§4) Cell growth inhibition rate%=1−(ODexperimental group−ODblank group)/(ODnegative group−ODblank group)×100%
(§5) 4) IC50 calculation: The semi-inhibitory concentration of the compound acting on cell was calculated using GradPad Prism 5 software according to the measured cell growth inhibition rate.
(§6) Human lung cancer cells A549, human gastric cancer cells BGC-823, human liver cancer cells HepG-2 and human breast cancer cells MCF-7, human osteosarcoma cells U2OS, human prostate cancer cells LNCAP cultured in vitro were added in a 96-well culture plate at 1,000-10,000 cells/well, incubated until adherence, and then the compound was added. As to other procedures, please refer to the method (1) above.

[2] = test system: human liver cancer cells HepG-2; test: MTS cell growth inhibition, HepG-2; conditions: 48 h; for inhibition at 10 µM: HepG2, compound concentration 10 μM, read-out: Inhibition rate against HepG-2 at 10 μM (%); for IC50: HepG2, growth inhibition
Procedure: as §1, §2, §3, §4, §5, §6

[3] = test system: Human promyelocytic leukemia cells HL-60; test: MTS cell growth inhibition, HL-60; conditions: Homo sapiens, HL-60, 48 h, MTS; for inhibition at 10 µM: compound concentration 10 μM, read-out: Inhibition rate against HL-60 at 10 μM (%); for IC50: growth inhibition
Procedure: as §1, §2, §3, §4, §5

[4] = test system: Human lung cancer cells A549; test: MTS cell growth inhibition, A549; conditions: compound concentration 10 μM, 48 h, MTS, read-out: Inhibition rate against A549 at 10 μM (%)
Procedure: as §1, §2, §3, §4, §5, §6

[5] = test system: human prostate cancer cells LNCAP; test: MTS cell growth inhibition, LNCAP; conditions: Homo sapiens, LNCaP, 48 h, MTS; for inhibition at 10 µM: compound concentration 10 μM, read-out: Inhibition rate against LNCAP at 10 μM (%); for IC50: growth inhibition
Procedure: as §1, §2, §3, §4, §5, §6

[6] = test system: human osteosarcoma cells U2OS; test: MTS cell growth inhibition, U2OS; conditions: Homo sapiens, U2OS, 48 h, MTS; for inhibition at 10 µM: compound concentration 10 μM, read-out: Inhibition rate against U2OS at 10 μM (%); for IC50: growth inhibition
Procedure: as §1, §2, §3, §4, §5, §6

[7] = test system: human gastric cancer cells BGC-823; test: MTS cell growth inhibition, BGC-823; conditions: 48 h; for inhibition at 10 µM: compound concentration 10 μM, read-out: Inhibition rate against BGC-823 at 10 μM (%); for IC50: growth inhibition
Procedure: as §1, §2, §3, §4, §5, §6

Row | SMILES | inhibition at 10 µM [1] [%] | inhibition at 10 µM [2] [%] | IC50 [2] [µM] | inhibition at 10 µM [3] [%] | IC50 [3] [µM] | inhibition at 10 µM [4] [%] | inhibition at 10 µM [5] [%] | IC50 [5] [µM] | inhibition at 10 µM [6] [%] | IC50 [6] [µM] | inhibition at 10 µM [7] [%] | IC50 [7] [µM]
1 | O=C(Nc1ccc(OC(F)(F)F)cc1)c1cc2scnc2[nH]1 [Compound I-6] | 3.4 | 66.5 | 1.99 | 69.1 | 0.217 | 6.3 | 55.8 | 0.319 | 56.2 | 0.929 | 64.5 | 0.582
2 | COC(=O)c1ccc(NC(=O)c2cc3scnc3[nH]2)cc1 [Compound I-8] | 21.2 | 58.1 | – | 69.4 | 1.78 | 56.8 | – | 6.04 | 50.9 | 6.35 | 72.2 | –
3 | O=C(Nc1ccc(C(F)(F)F)cc1)c1cc2scnc2[nH]1 [Compound I-11] | 7.4 | 62.9 | 1.47 | 71.2 | 0.653 | 7.6 | 56.1 | 5.26 | 56.2 | 1.51 | 58.8 | 0.849
4 | COc1ccc(NC(=O)c2cc3scnc3[nH]2)cc1 [Compound I-12] | 5.9 | 58.3 | 0.223 | 68.9 | 0.59 | 9.3 | 54.6 | 6.31 | 57.7 | 1.52 | 47.4 | 0.952
5 | CN(C)c1ccc(NC(=O)c2cc3scnc3[nH]2)cc1 [Compound I-13] | < 0 | 54.7 | 1.93 | 69.7 | 1.3 | 3.4 | 48.6 | > 10 | 53.2 | 2.68 | 54.3 | 1.11
6 | CCN(CC)c1ccc(NC(=O)c2cc3scnc3[nH]2)cc1 [Compound I-15] | 23.8 | 57.8 | – | 63.2 | 2.71 | 69.4 | – | > 10 | 53.5 | > 10 | 71.7 | –
7 | O=C(Nc1ccc([N+](=O)[O-])cc1)c1cc2scnc2[nH]1 [Compound I-16] | 17.6 | 38.6 | – | 44.6 | – | 32.4 | 58 | – | 40.2 | – | 63.3 | –
8 | O=C(NCc1ccccc1-c1ccncc1)c1cc2scnc2[nH]1 [Compound I-22] | 15.1 | 48.9 | – | 65.2 | 0.672 | 54.8 | 64.3 | 2.57 | 50 | 3.66 | 64.6 | –
9 | O=C(NCc1ccccc1-c1cccnc1)c1cc2scnc2[nH]1 [Compound I-23] | 27 | 60.4 | – | 70.5 | 0.475 | 53.4 | 64.4 | 1.58 | 56 | 2.93 | 71.1 | –
10 | O=C(NCc1ccccc1-c1ccsc1)c1cc2scnc2[nH]1 [Compound I-24] | 31.5 | 38.2 | – | 64.3 | 2.3 | 20.1 | 48.7 | 0.849 | 37.6 | 2.75 | 51.2 | –
